Measured values from PMC5955586, “Transport of enniatin B and enniatin B1 across the blood-brain barrier and hints for neurotoxic effects in cerebral cells” (PLoS ONE, 2018).
pIC50: −log10 of the molar value. Where two headings read alike, the source gives them in different places.

Tests used:
[1] = CCK-8 viability assay in PBCEC; assay type: cell-based, porcine; conditions: pig, primary porcine brain capillary endothelial cells (PBCEC)
Protocol: Primary porcine brain capillary endothelial cells (PBCEC) were kindly provided by the group of Prof. Dr. Langer, Institute of Pharmaceutical Technology, WWU Münster. Cellular viability was tested after treatment for 48 h using the CCK-8 assay, like applied for the cell lines but with minor modifications. Based on earlier protocols for the cultivation of PBCEC, the cryopreserved PBCEC were thawed at 37°C in a water bath, gently resuspended in culture medium (Medium 199 Earle’s with 100 U/mL penicillin, 100 μg/mL streptomycin, 100 μg/mL gentamycin, 4.1 mM L-glutamine and 10% fetal calf serum) and centrifugated at 220 × g at 20°C for 10 min. After removal of the supernatant, fresh complete medium was added and the cell pellet was resuspended twice and diluted to desired cell density. The cells were seeded on rat tail collagen coated 96-well tissue culture plates with 100 μL of the cell suspension per well. PBCEC were allowed to grow for 48 h at 37°C, 5% CO2 under saturated humidified conditions. Complete medium was exchanged for serum free medium (DMEM/Ham’s F-12 1:1 with 100 U/mL penicillin, 100 μg/mL streptomycin, 100 μg/mL gentamycin, 0.7 mM L-glutamine and 550 nM hydrocortisone (Sigma-Aldrich, Steinheim, Germany)). On day 5 in culture (96 h after seeding) half of the medium (50 μL) was removed and exchanged with 50 μL double concentrated ENN solution to reach the desired final concentrations in a concentration range from 0.1 μM to 10 μM. The cells were treated with the test substances in concentrations from 0.1 to 10 μM for 48 h. Due to the sensitivity of the primary cells, after completion of 48 h, the incubation medium was not exchanged but each well was supplemented with 10 μL of the CCK-8 solution and incubated for 70 min at 37°C, 5% CO2 in a saturated humidified atmosphere. Then the absorbance of the generated formazan dye was measured at 457 nm with 650 nm as reference wavelength. After subtracting the reference absorption as well as a blank absorption without cells, the viabilities were normalized to a solvent treated negative control (1% ACN).

[2] = parameters: method as in PMID 27349679; conditions: mice; cited from earlier work
HepG2 = system: HepG2; parameters: method as in PMID 21640785; conditions: cited from earlier work
caspase-3 = test: Caspase-3 activity in CCF-STTG1 lysates; assay type: cell-based, human; conditions: 48 h
Protocol: For studying caspase-3 activity CCF-STTG1 cells were seeded in 12 well tissue culture plates in a cell density of 2.25 × 10^5 cells/well. The cells were grown for 24 h until a confluence of at least 70% was reached, then the medium was changed to serum free medium (RPMI 1640 medium supplemented with 100 U/mL penicillin, 100 μg/mL streptomycin and 2 mM L-glutamine). Concentrations from 0.1 μM to 2.5 μM were chosen to prevent strong cytotoxic effects, which might interfere with the endpoint of interest. 24 h after adaption to serum free conditions, cells were incubated with ENN B and ENN B1. Caspase-3 activity was determined in lysates. […] 33 μL reaction solution were added to 30 μL of the supernatant and incubated for 1 and 2 h at 37°C, 5% CO2 and saturated humidified atmosphere and then measured at λex = 405 nm and λem = 520 nm (Infinite M200 PRO microplate reader). […] The results were calculated as μmol AFC/μg protein and normalized to the solvent treated control (ACN 0.25%).
For quantitation of the total protein content a bicinchoninic acid (BCA) assay kit (Sigma-Aldrich GmbH, Seelze, Germany) was applied. […] After that the absorbance was measured at 560 nm with a Infinite M200 PRO microplate reader (Tecan, Crailsheim, Germany).

| Structure (SMILES) | viability at 48 h, 10 µM ([1]; 10 μM, read-out: relative viability) | brain tissue distribution in the parenchyma [2] | remaining in the capillaries [2] | pIC50 (HepG2; read-out: IC50) | maximum increase of caspase-3 activity (relative to solvent control) (caspase-3; CCF-STTG1, 1 μM) | viability at 48 h ([1]; concentrations above 5 μM, read-out: cellular viability, minimum) | IC50 (HepG2) | increase of caspase-3 activity compared to solvent control (caspase-3; CCF-STTG1, 2.5 μM) |
| --- | --- | --- | --- | --- | --- | --- | --- | --- |
| CC[C@H](C)[C@H]1C(=O)O[C@H](C(C)C)C(=O)N(C)[C@@H](C(C)C)C(=O)O[C@H](C(C)C)C(=O)N(C)[C@@H](C(C)C)C(=O)O[C@H](C(C)C)C(=O)N1C [ENN B1, enniatin B1] | 64% | 95% | 5% | 5.07 | 160% | – | – | – |
| CC(C)[C@H]1C(=O)O[C@H](C(C)C)C(=O)N(C)[C@@H](C(C)C)C(=O)O[C@H](C(C)C)C(=O)N(C)[C@@H](C(C)C)C(=O)O[C@H](C(C)C)C(=O)N1C [ENN B, enniatin B] | – | 95% | 5% | – | – | 70% | no IC50 could be calculated | 2.7 fold |
